Experiments:
mouse liver tissue = assay: Disappearance of parent lipid and primary metabolite from mouse liver after 0.25 mg/kg mRNA on days 1, 8 and 15; type: in vivo
Protocol: (§1) In vitro metabolite identification studies using compound 18 were also performed. […] The disappearance of parent compound 18 and the primary metabolite, compound 166, from mouse liver tissue was measured after dosing 0.25 mg/kg mRNA on days 1, 8, and 15.

human hepatocytes = assay: Metabolite profiling of Compound 18 incubated with human hepatocytes; type: in vitro ADME; set-up: key: +: Detected; ND: Not detected; details: Compound 18 (10 μM), human hepatocytes
Protocol: as §1
The results of metabolic profiling and characterization for compound 18 incubated with human hepatocytes or human plasma are summarized in Tables 41 and 42, respectively.

[1] = Metabolite identification of Compound 18 incubated with human plasma; type: in vitro ADME; set-up: key to Detection at 0 min / Detection at 30 min / Detection at 60 min / Detection at 90 min: +: Detected; ND: Not detected; details: Compound 18 (10 μM), human plasma
Protocol: Metabolite Identification: Compound 18 (10 μM) was incubated with human plasma (29.0 mg protein/incubation) in incubation mixtures (200 μL final incubation volume) that consisted of 50/50 v/v neat plasma (undiluted)/substrate solution in 50 mM phosphate buffer, pH 7.4). The plasma was obtained from male and female donors and contained K2EDTA anticoagulant. Reactions were started by addition of the substrate solution to human plasma and were stopped at four designated time points (0, 30, 60 and 90 min) by the addition of 600 μL of stop reagent (acetonitrile). Stopped incubation samples were centrifuged (e.g., 10,000×g for 10 min at 10° C.) and the supernatant fractions were analyzed by LC-MS/MS to characterize the metabolites formed from compound 18. Additional incubations were performed with the positive control procaine […] to establish competency of the test system. Samples were analyzed by LC-MS/MS.
as §1

- clearance from mouse liver tissue (mouse liver tissue): rapid clearance
- Detection at 60 min (human hepatocytes; 60 min): +
- Detection at 120 min (human hepatocytes; 120 min): +
- Detection at 240 min (human hepatocytes; 240 min): +
- Detection at 30 min ([1]; 30 min): +
- Detection at 60 min ([1]; 60 min): +
- Detection at 90 min ([1]; 90 min): +
SMILES: CCCCCCCCC(CCCCCCCC)OC(=O)CCCCCCCN(CCO)CCCCCCCC(=O)O [Compound 166, 8-((8-(Heptadecan-9-yloxy)-8-oxooctyl)(2-hydroxyethyl)amino)octanoic acid]
